From patent publication US12637465B2, “Pharmaceutically acceptable salts of sepiapterin” (PTC Therapeutics MP, Inc., priority 2018, dated 2026)

Columns and labels:
Format in all cases: physicochemical
[1] = Solid form stability study of salts and/or co-crystals at 25° C./60% RH and 40° C./75% RH
Description: The stability of the prepared salts and/or co-crystals was analyzed after 1 and 2 weeks at 25° C. and 60% relative humidity and 40° C. and 75% relative humidity. […] None of the phosphate, tartrate, or nicotinate salts and/or co-crystals underwent a form change during the stability testing, and each of them retained greater than 97% purity over the two weeks of the study. In fact, both the tartrate and nicotinate both retained greater than 99% purity.

[2] = Kinetic solubility in water and Medisca Oral Mix (HPLC solubility, purity and pH of supernatant); details: RT; for Purity (area %) of supernatant: for reference only; for Purity (area %) of supernatant / pH / Solubility: listed as L-tartrate salt and/or co-crystal; for Solubility: calculated using freebase, target conc. 7 mg/mL
Description: The kinetic solubility was evaluated for nicotinate, phosphate, L-tartrate, and fumarate salts and/or co-crystals of sepiapterin in water and […] Oral Mix. X-ray powder diffraction (XRPD) was performed for the residual solids to identify form change/disproportionation. Solids were suspended into the media with target conc. of 7 mg/mL (calculated by freebase).

[3] = Form change/disproportionation of residual solids by XRPD after suspension in water or Medisca Oral Mix; details: for Form change (residual solids, XRPD): RT, listed as L-tartrate salt and/or co-crystal
Description: The kinetic solubility was evaluated for nicotinate, phosphate, L-tartrate, and fumarate salts and/or co-crystals of sepiapterin in water and […] Oral Mix. X-ray powder diffraction (XRPD) was performed for the residual solids to identify form change/disproportionation. Solids were suspended into the media with target conc. of 7 mg/mL (calculated by freebase). […] Oral Mix after 1 hour. […] Oral Mix.

C[C@H](O)C(=O)C1=Nc2c(nc(N)[nH]c2=O)NC1 [L-Tartrate, sepiapterin]
Stability compared with the other salts and/or co-crystals tested [1]: noticeably more stable than the others | Underwent a form change during the stability testing ([1]; 1 and 2 weeks, 25° C./60% RH and 40° C./75% RH): None | Form change ([1]; 1 week, 25° C./60% RH): No | Purity (Area %) ([1]; 1 week, 25° C./60% RH): 98.61 Area % | Purity vs. initial (%) ([1]; 1 week, 25° C./60% RH): 99.9% | Form change ([1]; 1 week, 40° C./75% RH): No | Purity (Area %) ([1]; 1 week, 40° C./75% RH): 99.06 Area % | Purity vs. initial (%) ([1]; 1 week, 40° C./75% RH): 99.3% | Form change ([1]; 2 weeks, 25° C./60% RH): No | Purity (Area %) ([1]; 2 weeks, 25° C./60% RH): 99.39 Area % | Purity vs. initial (%) ([1]; 2 weeks, 25° C./60% RH): 99.6% | Form change ([1]; 2 weeks, 40° C./75% RH): No | Purity (Area %) ([1]; 2 weeks, 40° C./75% RH): 99.00 Area % | Purity vs. initial (%) ([1]; 2 weeks, 40° C./75% RH): 99.3% | Purity (Area %) ([1]; Initial): 99.75 Area % | Observation ([2]; Medisca Oral Mix, 1 hr): Turbid | Purity (area %) of supernatant ([2]; Medisca Oral Mix, 1 hr): 99.68 area % | pH ([2]; Medisca Oral Mix, 1 hr): 3.3 | Observation ([2]; Medisca Oral Mix, 4 hr): Turbid | Solubility ([2]; Medisca Oral Mix, 4 hr): 2500 µg/mL | Purity (area %) of supernatant ([2]; Medisca Oral Mix, 4 hr): 99.54 area % | pH ([2]; Medisca Oral Mix, 4 hr): 3.3 | Observation ([2]; Medisca Oral Mix, 24 hr): Turbid | Solubility ([2]; Medisca Oral Mix, 24 hr): 3200 µg/mL | Purity (area %) of supernatant ([2]; Medisca Oral Mix, 24 hr): 95.67 area % | pH ([2]; Medisca Oral Mix, 24 hr): 3.3 | Observation ([2]; Water, 1 hr): Turbid | Purity (area %) of supernatant ([2]; Water, 1 hr): 99.34 area % | pH ([2]; Water, 1 hr): 2.5 | Observation ([2]; Water, 4 hr): Turbid | Purity (area %) of supernatant ([2]; Water, 4 hr): 99.07 area % | pH ([2]; Water, 4 hr): 2.5 | Observation ([2]; Water, 24 hr): Turbid | Purity (area %) of supernatant ([2]; Water, 24 hr): 95.61 area % | pH ([2]; Water, 24 hr): 2.5 | Form change (residual solids, XRPD) ([3]; Medisca Oral Mix, 1 hr): Yes | Form change (residual solids, XRPD) ([3]; Medisca Oral Mix, 4 hr): Yes | Form change (residual solids, XRPD) ([3]; Medisca Oral Mix, 24 hr): Yes | Form of the residual solids in Medisca Oral Mix ([3]; Medisca Oral Mix, after 1 hour): converted to freebase | Form change (residual solids, XRPD) ([3]; Water, 1 hr): Yes | Form change (residual solids, XRPD) ([3]; Water, 4 hr): Yes | Form change (residual solids, XRPD) ([3]; Water, 24 hr): Yes | Form of the residual solids in water ([3]; water, after 1 hour): converted to freebase
